According to PubChem BioAssay AID1361 (SRMLSC, 2008):
Active and inactive are the calls of the source. How the calls were made is not given here.

Experiment: blockers of mitochondrial fusion, WT vs mutant – cell-based, chemical genetic, wild-type and mutant, confirmation (AID 1361)
Conditions: Cell-based mitochondrial fusion phenotype, imaging
[1] = mutant cells, measured here: mutant cell line IC50

Compound | IC50 (WT cells) | IC50 [1]
Cn1c(/C=C/N2CCOCC2)c(C(=O)c2ccc(Br)cc2)c(=O)n(C)c1=O | > 25 µM (inactive) | > 25 µM
Cc1oc(-c2ccccc2)nc1CN1C(=O)C(C)N=C(c2ccccc2F)c2cc(Cl)ccc21 (stereo not drawn) | 12.4 µM | > 25 µM
Clc1cccc(N=C2NN=C(c3ccc4c(c3)OCCO4)CS2)c1 | 15.9 µM | > 25 µM
Clc1ccc2c(c1)C(c1ccccc1Cl)=NCc1nnc(N3CCN(CCSc4ccccc4)CC3)n1-2 | 13.9 µM | > 25 µM
CCC(=Nc1ccc(OC)cc1OC)c1c(O)n(C2CCCCC2)c(=O)[nH]c1=O | 15.9 µM | > 25 µM
CCCOC(=O)CN1C(=O)c2ccccc2C1=O | > 25 µM (inactive) | > 25 µM
COc1ccc(C2=NN(C(=O)c3cccs3)C(c3ccccc3O)C2)cc1 (stereo not drawn) | 13.8 µM | 24.9 µM
CCOC(=O)N1CCN(S(=O)(=O)c2ccc(C)c(C)c2)CC1 | > 25 µM (inactive) | > 25 µM
CCOc1ccc(S(=O)(=O)N2CCN(C(=O)c3cc4c(s3)CCCC4)CC2)cc1 | 4.98 µM | > 25 µM
COc1ccc(OC)c2c(N)c(C#N)c(C(F)(F)C(F)(F)F)nc12 | > 25 µM (inactive) | > 25 µM
COC(=O)c1c(NC(=O)CN2CCC3(O)CCCCC3C2c2ccc(OC)cc2OC)sc(C)c1C (stereo not drawn) | 14.9 µM | > 25 µM
O=C(Oc1cccnc1)c1ccc(Cl)c(Cl)c1 | > 25 µM (inactive) | > 25 µM
Cc1ccc(NC(=O)CC2S/C(=N/N=C3\CCCc4ccccc43)NC2=O)cc1 (stereo not drawn) | 22.2 µM | > 25 µM
CC1CCc2nc(NC(=O)CN3CCN(c4ccc(F)cc4)CC3)sc2C1 (stereo not drawn) | > 25 µM (inactive) | 15.9 µM
CC(C)(C)n1nnnc1C(c1cccs1)N(Cc1cccnc1)Cc1ccccc1Cl (stereo not drawn) | 23.2 µM | > 25 µM
Cc1cccc(N2CCN(C(c3ccccc3)c3nnnn3C(C)(C)C)CC2)c1C (stereo not drawn) | 9.14 µM | > 25 µM
O=C(Nc1ccc(Cl)c(Cl)c1)c1ccc(Cn2cc(Cl)cn2)cc1 | 8.52 µM | 18.6 µM
O=C(Cc1ccc(Cl)cc1)Nc1ccccc1CO | > 25 µM (inactive) | > 25 µM
CCOC(=O)CC(=O)CSc1nc(C)nc2c1oc1ccccc12 | > 25 µM (inactive) | > 25 µM
CCN(Cc1ccccc1)C(c1cccs1)c1nnnn1C1CCCCC1 (stereo not drawn) | 8.92 µM | > 25 µM
Cc1nc2cc(C(=O)OCC(=O)NC34CC5CC(CC(C5)C3)C4)ccc2n1-c1ccccc1 | 21.9 µM | > 25 µM

Compound | IC50 (WT cells) | IC50 [1]
COc1ccc(/C=N/NC(=O)c2ccn[nH]2)cc1COc1ccc(Cl)cc1Cl | 23 µM | > 25 µM
S=C(Nc1ccc(Oc2ccccc2)cc1)NC1CCCCCC1 | 5.19 µM | 10 µM
COc1ccc(C(C)(C)C)cc1NC(=O)Nc1ccc2c(c1)OCO2 | 9.81 µM | 23.3 µM
Cc1cc(-c2sccc2C)nc(-n2cccc2)n1 | > 25 µM (inactive) | > 25 µM
CCOc1ccc(NC(=S)N(CCc2c(C)[nH]c3ccc(C)cc23)Cc2ccco2)cc1 | 6.2 µM | > 25 µM
CCCC[C@@H]1C[C@H]1[C@@H](NC(=O)c1cccs1)c1ccc(Cl)cc1 | 9.76 µM | > 25 µM
O=C(CNC(=S)N(Cc1ccccc1)Cc1ccccc1F)NCc1ccc(Cl)cc1 | 5.67 µM | > 25 µM
CC(C)c1ccc(NC(=O)c2sccc2-n2cccc2)cc1 | > 25 µM (inactive) | > 25 µM
COc1ccccc1N1CCN(C(=O)c2ccc(CSc3ccccc3)cc2)CC1 | 15.4 µM | > 25 µM
O=C(CN1C(=O)COc2ccccc21)N(Cc1cccnc1)Cc1cccc(F)c1 | > 25 µM (inactive) | > 25 µM
O=C(Nc1ccc(C(F)(F)F)cc1)c1cc(S(=O)(=O)NCC2COc3ccccc3O2)ccc1F (stereo not drawn) | 15.2 µM | > 25 µM
COc1ccc(-c2nnc(SCC(=O)c3cccs3)o2)c(OC)c1 | > 25 µM (inactive) | > 25 µM
COCCN(C(=S)Nc1ccc(C(C)C)cc1)C(C)c1cccs1 (stereo not drawn) | > 25 µM (inactive) | > 25 µM
N#CCc1ccc(NS(=O)(=O)c2ccc(C3CCCCC3)cc2)cc1 | 22.8 µM | > 25 µM
CCOC(=O)C1CCCN(C(=O)CS(=O)(=O)Cc2ccccc2)C1 (stereo not drawn) | > 25 µM (inactive) | > 25 µM
Cc1ccc2nc(N/N=C/c3ccccc3F)nc(-c3ccccc3)c2c1 | 7.54 µM | 16.6 µM
CC(=O)C(N=Nc1ccccc1)(Sc1nnc(-c2ccccc2)n1-c1ccccc1)C(C)=O | 6.6 µM | > 25 µM
CCOC(=O)/C(=C/c1ccc(N2CCC(c3ccccc3)=N2)cc1)C(C)=O | > 25 µM (inactive) | > 25 µM
Cc1cccc(-n2c(CCc3ccccc3)nnc2SCC(=O)c2ccccc2)c1 | 20.6 µM | > 25 µM
Cc1cccc(N/N=C(\C=N\N)C(=O)c2ccc(Br)cc2)c1 | > 25 µM (inactive) | > 25 µM
CC1Cc2ccccc2N1C(=O)Cn1c(=O)cc(O)c2ccccc21 (stereo not drawn) | > 25 µM (inactive) | > 25 µM

Compound | IC50 (WT cells) | IC50 [1]
COC(=O)CN(c1ccc2c(c1)OCCO2)S(=O)(=O)c1ccccc1 | > 25 µM (inactive) | > 25 µM
Cc1ccc2nc(SC(C(=O)Nc3ccc(F)cc3)c3ccccc3)[nH]c2c1 (stereo not drawn) | > 25 µM (inactive) | > 25 µM
O=C(COC(=O)c1ccc([N+](=O)[O-])s1)Nc1ncc(C(F)(F)F)cc1Cl | 18.3 µM | > 25 µM
CCOC(=O)c1c(C)n(-c2ccc(C)cc2)c2ccc(OCC(O)CNCC3CCCO3)cc12 (stereo not drawn) | 15 µM | > 25 µM
N#Cc1c(-c2cccnc2)c2c([nH]c1=S)CCCC2 | > 25 µM (inactive) | > 25 µM
O=C(CN1CCN(S(=O)(=O)c2ccc(Cl)s2)CC1)NCc1ccc(Cl)cc1 | > 25 µM (inactive) | > 25 µM
O=C(NCc1ccccc1Cl)c1cnccn1 | > 25 µM (inactive) | > 25 µM
Clc1cccc(NCc2nnc(SCc3ccc(Cl)cc3Cl)o2)c1 | 10.6 µM | > 25 µM
CCCCC(c1nnnn1CC1CCCO1)N1CCN(c2cc(Cl)ccc2C)CC1 (stereo not drawn) | 21.6 µM | > 25 µM
O=C(CCn1nnc2ccccc21)Nc1nnc(Cc2ccccc2)s1 | > 25 µM (inactive) | > 25 µM
CCOc1ccc(Oc2c(/C=N/NC(=O)COc3ccccc3OC)c(C)nn2-c2ccccc2)cc1 | 14.8 µM | > 25 µM
Cc1ccc(C(=O)Nc2cc(Cl)ccc2N2CCCCC2)s1 | 7.64 µM | > 25 µM
O=C(CSc1nnnn1-c1ccccc1)NCc1cccs1 | > 25 µM (inactive) | > 25 µM
COC(=O)c1ccn(C(=O)c2ccc(Cl)cc2)n1 | > 25 µM (inactive) | > 25 µM
O=C(OCc1csc(Nc2ccccc2)n1)c1ccc(Cl)cc1 | 10.1 µM | 17.6 µM
COc1ccc(OCCC(=O)N2CCCCC2)cc1 | > 25 µM (inactive) | > 25 µM
COC(=O)CCC(=O)COc1ccc(OC)cc1C#N | > 25 µM (inactive) | > 25 µM
Cc1ccc(NC(=O)CCC(=O)OCC(=O)c2ccc(Oc3ccc([N+](=O)[O-])cc3)cc2)cc1C | > 25 µM (inactive) | > 25 µM
CCC(C)Nc1c([N+](=O)[O-])cc(C)cc1[N+](=O)[O-] (stereo not drawn) | > 25 µM (inactive) | > 25 µM
O=C(NCc1ccccn1)C(=O)Nc1nc(C23CC4CC(CC(C4)C2)C3)cs1 | 15 µM | > 25 µM
NC(=O)NCCC1=CCCCC1 | > 25 µM (inactive) | > 25 µM

Compound | IC50 (WT cells) | IC50 [1]
O=c1cc(N2CCCCC2)c(-c2ccccc2)nn1Cc1c(Cl)cccc1Cl | 5.39 µM | > 25 µM
O=C(N/N=C/C=C/c1ccccc1)C1CC1c1ccccc1 (stereo not drawn) | > 25 µM (inactive) | > 25 µM
CCOC(=O)C1=C(NC(=S)NC(=O)c2ccccc2)c2ccccc2CC1(C)CC (stereo not drawn) | 7.33 µM | > 25 µM
CCN(CC)c1ccc(/C=N/NC(=S)NCc2ccco2)cc1 | 11.6 µM | > 25 µM
c1ccc(-c2[nH]c(-c3ccccc3)[n+](CC3CO3)c2-c2ccccc2)cc1 (stereo not drawn) | 18.8 µM | > 25 µM
Cc1ccc(C(=O)/C=C/c2c(C)nn(-c3ccccc3)c2Cl)cc1 | 20.2 µM | > 25 µM
NC(=O)COC(=O)c1ccc(Cl)c(S(=O)(=O)N(Cc2ccccc2)c2ccc(Cl)cc2)c1 | 18.1 µM | > 25 µM
O=C(CN1CCCCC1)Nc1ccc(Br)cc1C(=O)c1ccccc1Cl | 12 µM | > 25 µM
Cc1cccc(NC(=S)NNC(=O)COc2ccc(Cl)cc2Cl)c1 | 10.9 µM | 21 µM
CC(C)C(=O)N(c1cc2sc(=O)oc2c2ccccc12)S(=O)(=O)c1cccs1 | 7.48 µM | 20.7 µM
COC(=O)c1ccccc1NC(=O)CNc1cc(Cl)ccc1N1CCOCC1 | 24.7 µM | > 25 µM
Cc1ccc(-n2cc(CNCCc3cscn3)c(-c3ccc(F)cc3)n2)cc1 | > 25 µM (inactive) | > 25 µM
Cc1ccc(S(=O)(=O)n2c3ccc(Cl)cc3c3nc(C)sc32)cc1 | 9.63 µM | > 25 µM
Cc1onc(-c2ccccc2Cl)c1C(=O)Nc1sc2c(c1C(N)=O)CCC(C)C2 (stereo not drawn) | 12.2 µM | > 25 µM
O=c1c2ccccc2[nH]c(=S)n1-c1ccc2c(c1)OCO2 | > 25 µM (inactive) | > 25 µM
CC(C)(C)n1nnnc1C(c1ccc(Cl)cc1)N(Cc1cccnc1)Cc1ccco1 (stereo not drawn) | > 25 µM (inactive) | > 25 µM
Cc1ccc(NC(=S)N(CCCN2CCCC2)Cc2cccn2Cc2ccc(Cl)cc2)cc1C | 13.1 µM | > 25 µM
O=C(OCC(=O)N1CCN(C(=O)c2ccco2)CC1)c1cn(-c2ccccc2)nc1-c1ccccc1 | 13.1 µM | 16.3 µM
Cc1cc(Cl)ccc1NC(=S)NCCC(c1ccccc1)c1ccccc1 | 4.91 µM | > 25 µM
COc1ccccc1N1CCN(CC(=O)Nc2ccc(Cl)c(C(F)(F)F)c2)CC1 | 20.2 µM | > 25 µM
Cc1ncsc1C(=O)Nc1nc2c(s1)CC(C)CC2 (stereo not drawn) | > 25 µM (inactive) | > 25 µM
